According to patent publication US20080318268A1, “Devices and Methods for the Selection of Agents with Efficacy Against Biofilm” (priority 2005, published 2008):
Like-named read-outs stand apart in the source and are kept apart here.

Legend:
[1] = system: planktonic cultures of C. albicans; assay: Planktonic antifungal sensitivity (MIC, MFC) of C. albicans; type: cell-based, Candida albicans
Procedure: (§1) Three clinical isolates of Candida were used in this study, including one albicans and two non-albicans species. C. albicans ATCC 14053 was obtained from the University Of Calgary, Department Of Biological Sciences. C. tropicalis 99916 and C. glabrata 14326 were obtained from the dialysate of patients undergoing continued ambulatory peritoneal dialysis (CAPD). Aspergillus fumigatus was also tested.
Biofilm susceptibility testing uses the pegged lid of the assembly, now containing biofilms formed after rocking in the tray for 24 hour. Each peg on the lid was gently washed once in 200 μl of phosphate buffered saline solution (PBSS) in a 96-well microtiter plate (Falcon). The pegged lid was then transferred to another 96 well microtiter plate containing 2 fold dilutions antifungal agent in 200 μl of RPMI 1640 (Sigma, St. Louis, Mo.) or RPMI 1640 containing 1% DMSO (see test drug section). After the pegs were exposed to the drugs for 24 hours, the pegged lid was removed and gently rinsed twice in saline. The pegged lid was then placed on a 96 well plate containing RPMI 1640 recovery medium. The pegs were sonicated for 5 minutes (Candida spp.) or 7 minutes (Aspergillus) in an ultrasonicator to dislodge adherent cells into the recovery medium. Aliquots of 20 μl of the recovery medium were spot plated on SDA (Candida spp) or Rose Bengal Agar (A. fumigatus) to obtain the MBEC. […] The turbidity of the wells that contained the antibiotic and planktonic cells which were shed from the biofilm was measured at 650 nm to obtain the MIC. […]
(§2) Minimum Inhibitory Concentrations (MIC) and Minimum Fungicidal Concentrations (MFC) were determined according to the guidelines of the National Committee for Clinical laboratory Standards (NCCLS). […]
(§3) The test wells were then incubated at 37° C. for 24 hours with the antifungal drugs. MICs for Candida were obtained after incubation by reading the turbidity at 650 nm on a microtiter plate reader (Softmax, VWR). […] MFCs were determined for Aspergillus by plating 100 μl from each well onto Rose Bengal Agar, followed by spreading with a sterile glass spreader. […]

C. tropicalis = assay: Planktonic antifungal sensitivity (MIC) of C. tropicalis; type: cell-based, Candida tropicalis; conditions: C. tropicalis strain tested
Procedure: as §1
Biofilm susceptibility testing uses the pegged lid of the assembly, now containing biofilms formed after rocking in the tray for 24 hour. Each peg on the lid was gently washed once in 200 μl of phosphate buffered saline solution (PBSS) in a 96-well microtiter plate (Falcon). […] The turbidity of the wells that contained the antibiotic and planktonic cells which were shed from the biofilm was measured at 650 nm to obtain the MIC. […]
as §2, §3

planktonic Candida cells = assay: Planktonic antifungal sensitivity of Candida spp.; type: cell-based; conditions: all species tested
Procedure: as §1
(§4) Biofilm susceptibility testing uses the pegged lid of the assembly, now containing biofilms formed after rocking in the tray for 24 hour. Each peg on the lid was gently washed once in 200 μl of phosphate buffered saline solution (PBSS) in a 96-well microtiter plate (Falcon). The pegged lid was then transferred to another 96 well microtiter plate containing 2 fold dilutions antifungal agent in 200 μl of RPMI 1640 (Sigma, St. Louis, Mo.) or RPMI 1640 containing 1% DMSO (see test drug section). After the pegs were exposed to the drugs for 24 hours, the pegged lid was removed and gently rinsed twice in saline. The pegged lid was then placed on a 96 well plate containing RPMI 1640 recovery medium. The pegs were sonicated for 5 minutes (Candida spp.) or 7 minutes (Aspergillus) in an ultrasonicator to dislodge adherent cells into the recovery medium. Aliquots of 20 μl of the recovery medium were spot plated on SDA (Candida spp) or Rose Bengal Agar (A. fumigatus) to obtain the MBEC. The assembly was also used to determine the minimum inhibitory concentration (MIC) and minimum fungicidal concentration (MFC). The turbidity of the wells that contained the antibiotic and planktonic cells which were shed from the biofilm was measured at 650 nm to obtain the MIC. A 20 μl sample from each well was also spot plated onto Sabouraud Dextrose agar (Candida spp) or Rose Bengal Agar (A. fumigatus) to obtain the MFC.
Minimum Inhibitory Concentrations (MIC) and Minimum Fungicidal Concentrations (MFC) were determined according to the guidelines of the National Committee for Clinical laboratory Standards (NCCLS). Briefly, Candida sp. were maintained on polystyrene spheres at −70° C. until plating. These organisms were streaked onto Sabouraud Dextrose agar (Microbiologie) plates 24 hours before test initiation. The 24 hour colonies were picked from the agar plates and placed in Muellar-Hinton Broth (MHB, Microbiologie) such that the turbidity matched a McFarland standard of 0.5. This was then diluted 1:10 in MHB to obtain a suspension of approximately 1×10^5 to 5×10^5 CFU/ml. A 5 μl volume of this suspension was added to wells containing 200 μl of antifungal agent serially diluted in RPMI 1640 media (Sigma) in a 96 well microtiter plate (Nunclon). A. fumigatus was maintained as a spore suspension at 4° C. until testing. The spore suspension (50 μl) was diluted into 250 ml of TSB, and 5 μl of this suspension was added to each test well containing dilution of antifungal agent as above.
The test wells were then incubated at 37° C. for 24 hours with the antifungal drugs. MICs for Candida were obtained after incubation by reading the turbidity at 650 nm on a microtiter plate reader (Softmax, VWR). A 20 μl aliquot of each well was also plated (SDA) and MFCs obtained from them after 24 hours incubation at 37° C. MFCs were determined for Aspergillus by plating 100 μl from each well onto Rose Bengal Agar, followed by spreading with a sterile glass spreader. The plated organisms were maintained at 25° C. for three days before colony enumeration.
Drugs tested. Itraconazole, Fluconazole, and Ketoconazole were obtained from Janssen Pharmaceuticals in Brussels, Belgium. Nystatin 5-Fluorocytosine, Griseofulvin, Amphotericin B and Polymyxin B were obtained from Sigma Chemical Co, St. Louis, Mo. 5-Fluorocytosine, polymyxin B sulphate and nystatin were dissolved in double-distilled water to a concentration of 10.24 mg/ml and diluted in the test wells through a range of 1024 μg/ml to 0.125 μg/ml in RPMI. […]

[2] = system: Staphylococcus aureus (Staph) planktonic bacteria; assay: MBEC assay, planktonic Staph isolates (Example 5); type: cell-based; conditions: number of resistant isolates; 12 isolates from device associated infections; exposed 24 hours
[3] = system: Staphylococcus aureus (Staph) biofilm; assay: MBEC assay, Staph biofilms (Example 5); type: cell-based; conditions: number of resistant isolates; 12 isolates from device associated infections; exposed 24 hours
[4] = system: planktonic Staphylococcus aureus; assay: Staphylococcus test plate, planktonic forms (Example 9); type: cell-based; conditions: breakpoint concentrations, number in the label is the concentration tested
[5] = system: Staphylococcus aureus biofilm; assay: Staphylococcus test plate, biofilm forms (Example 9); type: cell-based; conditions: breakpoint concentrations, number in the label is the concentration tested
[6] = system: Pseudomonas aeruginosa (Ps) planktonic bacteria; assay: MBEC assay, planktonic Ps isolates (Example 5); type: cell-based; conditions: number of resistant isolates; 12 isolates from Cystic Fibrosis patients; exposed 24 hours
[7] = system: Pseudomonas aeruginosa (Ps) biofilm; assay: MBEC assay, Ps biofilms (Example 5); type: cell-based; conditions: number of resistant isolates; 12 isolates from Cystic Fibrosis patients; exposed 24 hours
planktonic P. aeruginosa = assay: Pseudomonas aeruginosa biofilm assay kit, planktonic MIC reading of challenge plate (Example 8); type: cell-based; conditions: challenge 24 hours at 35° C.; breakpoint concentrations
P. aeruginosa biofilm = assay: Pseudomonas aeruginosa biofilm assay kit, biofilm MBEC reading of recovery plate (Example 8); type: cell-based; conditions: challenge 24 hours at 35° C.; recovery 20 to 24 hours; breakpoint concentrations
[8] = system: biofilm cells of C. albicans; assay: Minimum biofilm eradication concentration assay, C. albicans biofilm; type: cell-based, Candida albicans
Procedure: as §1
Biofilm formation and measurement of antimicrobial sensitivity of Candida and Aspergillus biofilms were performed using an assembly of the present invention. The device features a microtiter plate lid with 96 pegs or projections distributed on the lid. Each peg provided the surface for microorganism to adhere, colonize and form a uniform biofilm. The pegs fit precisely into the wells of a standard 96-well microtiter plate. The lid was used in conjunction with a base having special troughs for growing, washing, and incubating fungi. […] It was determined in preliminary experiments that C. glabrata required 10% CO2 atmosphere for biofilms to form.
Biofilm susceptibility testing uses the pegged lid of the assembly, now containing biofilms formed after rocking in the tray for 24 hour. […] The turbidity of the wells that contained the antibiotic and planktonic cells which were shed from the biofilm was measured at 650 nm to obtain the MIC. […]

Candida biofilms = assay: Minimum biofilm eradication concentration assay, Candida spp. biofilms; type: cell-based
Procedure: as §1
Biofilm formation and measurement of antimicrobial sensitivity of Candida and Aspergillus biofilms were performed using an assembly of the present invention. The device features a microtiter plate lid with 96 pegs or projections distributed on the lid. Each peg provided the surface for microorganism to adhere, colonize and form a uniform biofilm. The pegs fit precisely into the wells of a standard 96-well microtiter plate. The lid was used in conjunction with a base having special troughs for growing, washing, and incubating fungi. Colonies of Candida sp. were picked from 24 hour cultures on Sabouraud Dextrose agar (SDA) (BBL Microbiological Systems, Cockeysville, Md.) and placed into Mueller-Hinton Broth (MHB) (Difco Laboratories, Detroit Mich.) such that the suspension matched a McFarland standard of 1.0. This suspension was then diluted 1:30 in MHB, and 25 ml were pipetted into the trough chamber of the base. The closed assembly (lid with pegs positioned on the base) was placed on a Hoeffer Red Rocker (VWR, Scientific) set to rock the plates 3.5 cycles per minute in a 37° C. incubator. C. albicans and C. tropicalis were incubated aerobically, while C. glabrata was incubated in 10% CO2. It was determined in preliminary experiments that C. glabrata required 10% CO2 atmosphere for biofilms to form.
as §4
Drugs tested. Itraconazole, Fluconazole, and Ketoconazole were obtained from Janssen Pharmaceuticals in Brussels, Belgium. Nystatin 5-Fluorocytosine, Griseofulvin, Amphotericin B and Polymyxin B were obtained from Sigma Chemical Co, St. Louis, Mo. […]

[9] = cited from earlier work
[10] = system: invasive pulmonary, sinus and cerebral aspergillosis; conditions: cited from earlier work
[11] = planktonic cultures of C. albicans

OC(Cn1cncn1)(Cn1cncn1)c1ccc(F)cc1F [fluconazole, Fluconazole]
classification by fluconazole MIC criterion (less than or equal to 8 μg/ml = susceptible) ([1]; C. albicans strain tested): susceptible
classification by fluconazole MIC criterion (less than or equal to 8 μg/ml = susceptible) (C. tropicalis): susceptible
effectiveness in killing planktonic Candida cells (planktonic Candida cells): effective

Cc1onc(-c2ccccc2Cl)c1C(=O)N[C@@H]1C(=O)N2[C@@H]1SC(C)(C)[C@@H]2C(=O)O [CLOX, cloxacillin]
Staph resistance to individual antibiotics and antibiotic combinations, Planktonic [2]: 3
Staph resistance to individual antibiotics and antibiotic combinations, Biofilm [3]: 12
Number of Staphylococcus aureus isolates resistant to individual antibiotics and antibiotic combinations, Planktonic [4]: 2
Number of Staphylococcus aureus isolates resistant to individual antibiotics and antibiotic combinations, Biofilm [5]: 12

gentamicin [GM]
Staph resistance to individual antibiotics and antibiotic combinations, Planktonic [2]: 6
Staph resistance to individual antibiotics and antibiotic combinations, Biofilm [3]: 10
Ps resistance to individual antibiotics and antibiotic combinations, Planktonic [6]: 8
Ps resistance to individual antibiotics and antibiotic combinations, Biofilm [7]: 12
Number of P. aeruginosa isolates resistant to individual antibiotics and antibiotic combinations, Planktonic (planktonic P. aeruginosa): 8
Number of P. aeruginosa isolates resistant to individual antibiotics and antibiotic combinations, Biofilm (P. aeruginosa biofilm): 12
Number of Staphylococcus aureus isolates resistant to individual antibiotics and antibiotic combinations, Planktonic ([4]; listed as GM2): 4
Number of Staphylococcus aureus isolates resistant to individual antibiotics and antibiotic combinations, Planktonic ([4]; listed as GM4): 3
Number of Staphylococcus aureus isolates resistant to individual antibiotics and antibiotic combinations, Biofilm ([5]; listed as GM2): 11
Number of Staphylococcus aureus isolates resistant to individual antibiotics and antibiotic combinations, Biofilm ([5]; listed as GM4): 10

C[C@@H]1[C@H](O)[C@@H](C)/C=C/C=C/C=C/C=C/C=C/C=C/C=C/[C@H](O[C@@H]2O[C@H](C)[C@@H](O)[C@H](N)[C@@H]2O)C[C@@H]2O[C@](O)(C[C@@H](O)C[C@@H](O)[C@H](O)CC[C@@H](O)C[C@@H](O)CC(=O)O[C@H]1C)C[C@H](O)[C@H]2C(=O)O [amphotericin B, Amphotericin B]
average MFC [1, 11]: 0.02 µg/mL
average MIC [1, 11]: 0.09 µg/mL
average concentration required to kill biofilm cells [8]: 12 µg/mL
effectiveness in killing planktonic Candida cells (planktonic Candida cells): effective
MBEC (Candida biofilms; Candida biofilms): 16 µg/mL
effectiveness against Candida growing as a biofilm (Candida biofilms; biofilm (sessile) Candida): most effective agents
peak permissible human serum concentrations [9]: 2 µg/mL
cases that show any response ([10]; 14 days of treatment): 54%
crude mortality rate ([10]; patients treated for invasive cerebral aspergillosis): 99%
crude mortality rate ([10]; patients treated for invasive pulmonary aspergillosis): 86%
crude mortality rate ([10]; patients treated for invasive sinus aspergillosis): 66%
